ChEMBL document CHEMBL3508140 (2016)

Assays:
[1] = Plasma clearance of epirubicin following intravenous epirubicin emulsion at 1 mg.Kg-1 dose in rabbit; assay type: ADME, organism-based, Oryctolagus cuniculus, Blood; details: both, New Zealand White
[2] = Volume of distribution as steady state of epirubicin following intravenous epirubicin at 50 mg.m-2 dose in cancer patients; assay type: ADME, organism-based, Plasma; details: human, in vivo
[3] = Initial phase half-life of epirubicin following intravenous epirubicin at 75-90 mg.m-2 dose in cancer patients; assay type: ADME, organism-based, Plasma; details: human, in vivo
[4] = Intermediate phase half-life of epirubicin following intravenous epirubicin at 75 mg.m-2 dose in cancer patients; assay type: ADME, organism-based, Plasma; details: human, in vivo
[5] = Intermediate phase half-life of epirubicin following intravenous epirubicin at 75-90 mg.m-2 dose in cancer patients; assay type: ADME, organism-based, Plasma; details: human, in vivo
[6] = AUC values (0-48 h) of epirubicin in plasma following single intravenous epirubicin at 10 mg.Kg-1 dose in female mouse bearing colon tumor; assay type: ADME, organism-based, BALB/c; details: in vivo
[7] = Cumulative urinary excretion of epirubicin and its metabolites following epirubicin at 60-150 mg.m-2 dose in cancer patients; assay type: ADME, organism-based, Urine; details: human, in vivo
[8] = Initial phase half-life of epirubicin following intravenous epirubicin at 50 mg.m-2 dose in cancer patients; assay type: ADME, organism-based, Plasma; details: human, in vivo
[9] = Plasma clearance of epirubicin following intravenous epirubicin at 1 mg.Kg-1 dose in rabbit; assay type: ADME, organism-based, Oryctolagus cuniculus; details: both, New Zealand White
[10] = Half-life of terminal elimination phase of epirubicin following intravenous epirubicin at 75 mg.m-2 dose in cancer patients; assay type: ADME, organism-based; details: human, plasma
[11] = Incidence of leukocyturia following reference intravenous epirubicin at 1 mg.Kg-1 per week in rat; assay type: toxicity, organism-based, SD; details: in vivo
[12] = Volume of distribution of 4'-epiadriamycin intravenous 4'-epiadriamycin at 1.27 mg.Kg-1 dose in dog; assay type: ADME, organism-based, Canis lupus familiaris; details: Beagle, plasma
[13] = Plasma clearance of epirubicin following intravenous epirubicin at 3 mg.Kg-1 dose in rabbit; assay type: ADME, organism-based, Oryctolagus cuniculus; details: both, New Zealand White
[14] = Mean plasma clearance of epirubicin following intravenous epirubicin at 150 mg.m-2 dose in advanced cancer patients; assay type: ADME, organism-based; details: human, read-out: CLp (converted)
[15] = Volume of distribution as steady state of epirubicin following intravenous epirubicin at 40-135 mg.m-2 dose in cancer patients; assay type: ADME, organism-based, Plasma; details: human, in vivo
[16] = Increase in serum triglycerides level following reference intravenous epirubicin at 1 mg.Kg-1 per week in rat; assay type: toxicity, organism-based, SD; details: in vivo
[17] = (§1) Urinary elimination of 4'-epiadriamycin following intravenous bolus 4'-epiadriamycin at 10 mg.Kg-1 dose in rat; assay type: ADME, organism-based; details: SD, urine, read-out: Compound recovery
[18] = Plasma clearance of epirubicin following intravenous epirubicin at 60-90 mg.m-2 dose in cancer patients; assay type: ADME, organism-based; details: human, in vivo
[19] = Volume of distribution as steady state of epirubicin following intravenous epirubicin at 40-60 mg.m-2 dose in cancer patients; assay type: ADME, organism-based, Plasma; details: human, in vivo
[20] = Initial phase half-life of epirubicin following intravenous epirubicin at 25-35 mg.m-2 dose in cancer patients; assay type: ADME, organism-based, Plasma; details: human, in vivo
[21] = Terminal elimination of metabolite of epirubicin following intravenous epirubicin at 40-60 mg.m-2 dose in cancer patients; assay type: ADME, organism-based, Plasma; details: human, in vivo
[22] = Intermediate phase half-life of epirubicin following intravenous epirubicin at 40-60 mg.m-2 dose in cancer patients; assay type: ADME, organism-based, Plasma; details: human, in vivo
[23] = Initial phase half-life of epirubicin following intravenous epirubicin at 90-150 mg.m-2 dose in cancer patients; assay type: ADME, organism-based, Plasma; details: human, in vivo
[24] = Cumulative urinary excretion of epirubicin and its metabolites following epirubicin at 50 mg.m-2 dose in cancer patients; assay type: ADME, organism-based, Urine; details: human, in vivo; at 50 mg/m2
[25] = Incidence of persistent proteinuria following reference intravenous epirubicin at 1 mg.Kg-1 per week in rat; assay type: toxicity, organism-based, SD; details: in vivo
[26] = Half-life of epirubicin in tumor following single intravenous epirubicin at 10 mg.Kg-1 dose in female mouse bearing colon tumor; assay type: ADME, organism-based, Neoplasm; details: BALB/c
[27] = Urinary excretion of epirubicin following epirubicin at 50 mg.m-2 dose in cancer patients; assay type: ADME, organism-based; details: human, urine, at 50 mg/m2, read-out: Compound recovery
[28] = Mean estimated half-life of epirubicin following intravenous epirubicin at 1 mg.Kg-1 dose administered approximately 25 minute prior to epirubicin once weekly for four weeks in dog; assay type: ADME, organism-based, Canis lupus familiaris; details: Beagle, plasma
[29] = AUC of epirubicin following intrahepatic epirubicin emulsion at 1 mg.Kg-1 dose in rabbit; assay type: ADME, organism-based, Oryctolagus cuniculus; details: both, New Zealand White, blood
Albumin = Albumin (Homo sapiens, UniProt P02768); assay: Binding of epirubicin to albumin; assay type: cell-free; details: read-out: Plasma protein binding (converted)
Sequence of Albumin (P02768 whole entry): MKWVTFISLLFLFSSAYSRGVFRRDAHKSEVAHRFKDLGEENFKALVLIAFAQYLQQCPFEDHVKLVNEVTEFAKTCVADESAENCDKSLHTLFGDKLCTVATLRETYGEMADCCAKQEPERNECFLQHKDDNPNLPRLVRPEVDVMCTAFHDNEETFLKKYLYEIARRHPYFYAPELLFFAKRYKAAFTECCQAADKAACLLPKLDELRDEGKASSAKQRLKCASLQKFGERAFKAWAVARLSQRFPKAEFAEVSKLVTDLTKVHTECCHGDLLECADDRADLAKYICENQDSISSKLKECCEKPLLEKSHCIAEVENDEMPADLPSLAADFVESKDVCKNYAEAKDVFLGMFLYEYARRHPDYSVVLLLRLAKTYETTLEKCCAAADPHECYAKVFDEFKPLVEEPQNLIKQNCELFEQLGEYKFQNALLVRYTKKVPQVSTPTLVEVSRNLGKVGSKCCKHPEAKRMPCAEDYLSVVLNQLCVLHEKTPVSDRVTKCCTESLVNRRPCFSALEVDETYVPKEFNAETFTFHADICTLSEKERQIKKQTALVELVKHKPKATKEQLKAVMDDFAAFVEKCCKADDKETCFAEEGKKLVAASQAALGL

[30] = Terminal half-life of epirubicinol following intravenous epirubicin at 1 mg.Kg-1 dose in rabbit; assay type: ADME, organism-based, Oryctolagus cuniculus, New Zealand White, Plasma; details: in vivo
[31] = Terminal half-life of epirubicin following intrahepatic epirubicin solution at 1 mg.Kg-1 dose in rabbit; assay type: ADME, organism-based, Oryctolagus cuniculus; details: both, New Zealand White, blood
[32] = Terminal elimination of metabolite of epirubicin following intravenous epirubicin at 25-35 mg.m-2 dose in cancer patients; assay type: ADME, organism-based, Plasma; details: human, in vivo
[33] = Volume of distribution as steady state of epirubicin following intravenous epirubicin at 30-90 mg.m-2 dose in cancer patients; assay type: ADME, organism-based, Plasma; details: human, in vivo
[34] = Terminal half-life of epirubicinol following intravenous epirubicin at 3 mg.Kg-1 dose in rabbit; assay type: ADME, organism-based, Oryctolagus cuniculus, New Zealand White, Plasma; details: in vivo
[35] = Half-life of terminal elimination phase of epirubicin following intravenous epirubicin at 60 mg.m-2 dose in cancer patients; assay type: ADME, organism-based; details: human, plasma
[36] = Plasma clearance of epirubicin following intravenous epirubicin at 70 mg.m-2 dose in cancer patients; assay type: ADME, organism-based; details: human, in vivo
[37] = as §1; assay type: ADME, organism-based; details: SD, urine, read-out: Compound recovery; remark: listed apart in the source
[38] = Increase in serum total cholesterol level following reference intravenous epirubicin at 1 mg.Kg-1 per week in rat; assay type: toxicity, organism-based, SD; details: in vivo
[39] = Half-life of terminal elimination phase of epirubicin following intravenous epirubicin at 30-90 mg.m-2 dose in cancer patients; assay type: ADME, organism-based; details: human, plasma
[40] = Terminal half-life of epirubicin following intravenous epirubicin solution at 1 mg.Kg-1 dose in rabbit; assay type: ADME, organism-based, Oryctolagus cuniculus; details: both, New Zealand White, blood
[41] = Cumulative urinary excretion of epirubicin and its metabolites following epirubicin at 60 mg.m-2 dose in cancer patients; assay type: ADME, organism-based, Urine; details: human, in vivo; at 60 mg/m2
[42] = Plasma clearance of epirubicin following intravenous epirubicin at 50 mg.m-2 dose in cancer patients; assay type: ADME, organism-based; details: human, in vivo
[43] = Recovery of epirubicin following intravenous epirubicin at 1.5 mg.Kg-1 dose in man; assay type: ADME, organism-based, Plasma; details: human, in vivo
[44] = Intermediate phase half-life of epirubicin following intravenous epirubicin at 20 mg.m-2 dose in cancer patients; assay type: ADME, organism-based, Plasma; details: human, in vivo
[45] = Half-life of terminal elimination phase of epirubicin following intravenous epirubicin at 40-60 mg.m-2 dose in cancer patients; assay type: ADME, organism-based; details: human, plasma
[46] = Mean residence time (MRT) of epirubicin following intravenous epirubicin emulsion at 1 mg.Kg-1 dose in rabbit; assay type: ADME, organism-based, Oryctolagus cuniculus; details: both, New Zealand White, blood, read-out: Mean residence time (converted)
[47] = Urinary excretion of epirubicin following epirubicin at 60-150 mg.m-2 dose in cancer patients; assay type: ADME, organism-based; details: human, urine; read-out: Compound recovery
[48] = Plasma clearance of epirubicin following intravenous epirubicin at 90-150 mg.m-2 dose in cancer patients; assay type: ADME, organism-based; details: human, in vivo
[49] = Half-life of terminal elimination phase of epirubicin following intravenous epirubicin at 90-150 mg.m-2 dose in cancer patients; assay type: ADME, organism-based; details: human, plasma
[50] = Volume of distribution as steady state of epirubicin following intravenous epirubicin at 60 mg.m-2 dose in cancer patients; assay type: ADME, organism-based, Plasma; details: human, in vivo

## COc1cccc2c1C(=O)c1c(O)c3c(c(O)c1C2=O)C[C@@](O)(C(=O)CO)C[C@@H]3O[C@H]1C[C@H](N)[C@@H](O)[C@H](C)O1.Cl [EPIRUBICIN HYDROCHLORIDE]
[1]
  clearance: 1560 mL/min
[2]
  Vss: 583 L.m-2
[3]
  t1/2: 4.8 min
[4]
  t1/2: 1.7 h
[5]
  t1/2: 2.6 h
[6]
  AUC: 179 nmol·min/mL
[7]
  Radiolabel recovery: 5.9%
[8]
  t1/2: 3.44 min
[9]
  clearance: 196 mL/min
[10]
  half-life: 44.8 h
[11]
  Incidence: OUTCOME = Observed
[12]
  Vd: 71.9 L/kg
[13]
  clearance: 323 mL/min
[14]
  clearance: 1130 mL/min
[15]
  Vss: 836 L.m-2
[16]
  TRIG_CHANGE: OUTCOME = Increased
[17]
  dose excreted: 4.83%
[18]
  CLp: 30.5 L.h-1.m-2
[19]
  Vss: 592 L.m-2
[20]
  t1/2: 2.53 min
[21]
  t1/2: 31.5 h
[22]
  t1/2: 0.49 h
[23]
  t1/2: 0.167 h
[24]
  Radiolabel recovery: 20%
[25]
  Incidence: OUTCOME = Observed
[26]
  half-life: 24.7 h
[27]
  dose excreted at 48 h: 6.2%
  dose excreted at 96 h: 9.6%
[28]
  half-life: 51.1 h
[29]
  AUC: 36.4 ng·h/mL
Albumin
  fraction unbound: 0.43
[30]
  t1/2: 13.97 h
[31]
  half-life: 1.14 h
[32]
  t1/2: 21.1 h
[33]
  Vss: 1858 L.m-2
[34]
  t1/2: 33.94 h
[35]
  half-life: 31.4 h
[36]
  CLp: 84.2 L.h-1.m-2
[37]
  dose excreted: 3.9%
[38]
  CHOL_CHANGE: OUTCOME = Increased
[39]
  half-life: 39.4 h
[40]
  half-life: 1.06 h
[41]
  Radiolabel recovery: 11.3%
[42]
  CLp: 37 L.h-1.m-2
[43]
  Compound recovery: 46 10^-9M
[44]
  t1/2: 0.89 h
[45]
  half-life: 15.3 h
[46]
  MRT: 0.835 h
[47]
  dose excreted at 168 h: 3.2%
[48]
  CLp: 48 L.h-1.m-2
[49]
  half-life: 42 h
[50]
  Vss: 1272 L.m-2
